Converted amounts (≈) assume the structure as drawn.
Key:
Escherichia coli [1] = assay: Antibacterial activity against Escherichia coli K-12 MG1655 assessed as bacterial growth inhibition after 24 hrs by serial dilutoin method; type: functional; settings: K-12 substr. MG1655, 24 h
[2] = Antioxidant activity assessed as DPPH free radical scavenging activity incubated for 30 min by UV-vis spectrophotometric analysis; type: functional
Staphylococcus aureus [3] = assay: Antibacterial activity against methicillin-resistant Staphylococcus aureus after 24 hrs by microbroth dilution method; type: functional
[4] = Antioxidant activity assessed as DPPH free radical scavenging activity; type: functional
Staphylococcus aureus [5] = assay: Antibacterial activity against methicillin-resistant Staphylococcus aureus; type: functional
Escherichia coli [6] = assay: Antibacterial activity against Escherichia coli after 16 hrs by broth microdilution method; type: functional
Staphylococcus aureus [7] = assay: Antibacterial activity against Staphylococcus aureus after 16 hrs by broth microdilution method; type: functional
Staphylococcus aureus [8] = assay: Antibacterial activity against Staphylococcus aureus ATCC 6538 by agar diffusion method; type: functional
Escherichia coli [9] = assay: Antibacterial activity against Escherichia coli ATCC 10536 by agar diffusion method; type: functional
[10] = Antioxidant activity assessed as BTH equivalent of DPPH-induced radical scavenging activity; type: functional
Staphylococcus aureus [11] = assay: Antibacterial activity against Staphylococcus aureus by turbidity assay; type: functional
Bacillus cereus [12] = assay: Antibacterial activity against Bacillus cereus by turbidity assay; type: functional
Escherichia coli [13] = assay: Antibacterial activity against Escherichia coli by turbidity assay; type: functional
Proteus vulgaris = assay: Antibacterial activity against Proteus vulgaris by turbidity assay; type: functional
[14] = Antioxidant activity assessed as DPPH free radical scavenging activity incubated for 30 mins in dark condition; type: functional
Staphylococcus aureus [15] = assay: Antibacterial activity against Staphylococcus aureus after 17 hrs by NCCLS broth microdilution method; type: functional
Bacillus cereus [16] = assay: Antibacterial activity against Bacillus cereus after 17 hrs by NCCLS broth microdilution method; type: functional
Bacillus subtilis = assay: Antibacterial activity against Bacillus subtilis after 17 hrs by NCCLS broth microdilution method; type: functional
Listeria monocytogenes = assay: Antibacterial activity against Listeria monocytogenes after 17 hrs by NCCLS broth microdilution method; type: functional
Escherichia coli [17] = assay: Antibacterial activity against Escherichia coli after 17 hrs by NCCLS broth microdilution method; type: functional
Salmonella typhimurium = assay: Antibacterial activity against Salmonella typhimurium after 17 hrs by NCCLS broth microdilution method; type: functional, Salmonella enterica subsp. enterica serovar Typhimurium; settings: Salmonella enterica
Vibrio cholerae = assay: Antibacterial activity against Vibrio cholerae after 17 hrs by NCCLS broth microdilution method; type: functional
Campylobacter jejuni = assay: Antibacterial activity against Campylobacter jejuni after 17 hrs by NCCLS broth microdilution method; type: functional
Campylobacter coli = assay: Antibacterial activity against Campylobacter coli after 17 hrs by NCCLS broth microdilution method; type: functional
Aliarcobacter butzleri = assay: Antibacterial activity against Arcobacter butzleri after 17 hrs by NCCLS broth microdilution method; type: functional
[18] = test system: Aliarcobacter cryaerophilus; assay: Antibacterial activity against Arcobacter cryaerophilus after 17 hrs by NCCLS broth microdilution method; type: functional
[19] = Antioxidant activity assessed as trolox equivalent of AAPH-induced radical scavenging activity preincubated for 30 mins followed by […] challenge measured every 1.14 mins for 120 mins by ORAC-FL assay; type: functional
[20] = Antioxidant activity assessed as ABTS radical scavenging activity by measuring trolox equivalence of antioxidant capacity at 1 uM up to 24 hrs by spectrophotometric analysis; type: functional
[21] = Antioxidant activity assessed as reduction of Fe3+-TPTZ to Fe2+-TPTZ by measuring trolox equivalence of antioxidant capacity by FRAP assay; type: functional
Staphylococcus aureus [22] = assay: Antibiofilm activity against methicillin-resistant Staphylococcus aureus at 100 ug/ml after 18 hrs by crystal violet staining-based method relative to control; type: functional
Staphylococcus aureus [23] = assay: Antibiofilm activity against methicillin-resistant Staphylococcus aureus at 150 ug/ml after 18 hrs by crystal violet staining-based method relative to control; type: functional
Staphylococcus aureus [24] = assay: Bactericidal activity against Staphylococcus aureus ATCC 29213 incubated for 24 hrs by serial dilution method; type: functional
Staphylococcus aureus [25] = assay: Antibacterial activity against Staphylococcus aureus ATCC 29213 assessed as inhibition of bacterial growth at 25 g/L incubated for 24 hrs by serial dilution method relative to cntrol; type: functional; settings: ATCC 29213, 24 h, read-out: GI
Escherichia coli [26] = assay: Antibacterial activity against Escherichia coli KCTC 1924 after 20 to 36 hrs by disc diffusion method; type: functional
Staphylococcus aureus [27] = assay: Antibacterial activity against Staphylococcus aureus KCTC 1916 after 20 to 36 hrs by disc diffusion method; type: functional

Q: Which results are given for O=C(/C=C/c1ccc(O)c(O)c1)O[C@H](Cc1ccc(O)c(O)c1)C(=O)O [ROSMARINIC ACID]?
A: MIC (Escherichia coli [1]): 250 µg/mL (≈ 694 µM); IC50 [2]: 0.4 µg/mL (≈ 1.11 µM)

Q: Which MIC (Staphylococcus aureus [3]) does the source give for COc1cc(/C=C/c2cc(/C=C/c3ccc(OCC(=O)NC45CC6CC(CC(C6)C4)C5)c(OC)c3)[nH]n2)ccc1OCC(=O)NC12CC3CC(CC(C3)C1)C2 here?
A: Its MIC is 10 to 20 µg/mL (≈ 13.4 to 26.8 µM).

Q: For COc1cc(/C=C/C(=O)CC(=O)/C=C/c2ccc(O)c(OC)c2)ccc1O [CURCUMIN], which IC50 [4] is on record?
A: Its IC50 is 28 µg/mL (≈ 76 µM).

Q: What about the MIC (Staphylococcus aureus [5]) of the same compound?
A: The MIC was 125 to 250 µg/mL (≈ 339 to 679 µM).

Q: With COc1cc(/C=C/c2cc(/C=C/c3ccc(OCC(=O)Nc4ccccc4C)c(OC)c3)[nH]n2)ccc1OCC(=O)Nc1ccccc1C as the compound, how does the MIC (Staphylococcus aureus [3]) read?
A: The MIC was 10 to 20 µg/mL (≈ 15.2 to 30.4 µM).

Q: Which results are given for C=CCc1ccc(O)c(OC)c1 [EUGENOL]?
A: MIC (Escherichia coli [6]): 2.5 µg/mL (≈ 15.2 µM); MIC (Staphylococcus aureus [7]): 2.5 µg/mL (≈ 15.2 µM)

Q: Which MIC (Staphylococcus aureus [8]) does the source give for O=C(CCc1ccc(O)cc1)c1c(O)cc(O)cc1O [PHLORETIN] here?
A: The MIC was 100 µg/mL (≈ 365 µM).

Q: What about the MIC (Escherichia coli [9]) of the same compound?
A: Its MIC is 250 µg/mL (≈ 912 µM).

Q: What about the Activity [10] of the same compound?
A: Its Activity is 1.27 mg.equiv.

Q: For COc1cc(/C=C/c2cc(/C=C/c3ccc(OCC(=O)Nc4ccccc4)c(OC)c3)[nH]n2)ccc1OCC(=O)Nc1ccccc1, which MIC (Staphylococcus aureus [3]) is on record?
A: Its MIC is 10 to 20 µg/mL (≈ 15.9 to 31.7 µM).

Q: Which results are given for COc1c2cc(C)cc1n1cc(ccc3cn(c4cc(C)cc(c4OC)n4cc(ccc5cn2c2ccccc52)c2ccccc24)c2ccccc32)c2ccccc21?
A: IC50 [4]: 28 µg/mL (≈ 37.2 µM); MIC (Staphylococcus aureus [11]): 7.81 to 31.2 µg/mL (≈ 10.4 to 41.5 µM); MIC (Bacillus cereus [12]): 7.81 to 31.2 µg/mL (≈ 10.4 to 41.5 µM); MIC (Escherichia coli [13]): 7.81 to 31.2 µg/mL (≈ 10.4 to 41.5 µM); MIC (Proteus vulgaris): 7.81 to 31.2 µg/mL (≈ 10.4 to 41.5 µM)

Q: Which MIC (Staphylococcus aureus [3]) does the source give for COc1cc(/C=C/c2cc(/C=C/c3ccc(OCC(=O)Nc4ccc(F)cc4)c(OC)c3)[nH]n2)ccc1OCC(=O)Nc1ccc(F)cc1 here?
A: Its MIC is 10 to 20 µg/mL (≈ 15 to 30 µM).

Q: Which IC50 [14] does the source give for Cc1c(-c2cc(-c3ccc(F)cc3)nc(N)n2)nnn1-c1ccc(Cl)c(Cl)c1 here?
A: Its IC50 is 59.07 µg/mL (≈ 142 µM).

Q: For COc1cc(/C=C/c2cc(/C=C/c3ccc(OCC(=O)Nc4cccc(C(C)=O)c4)c(OC)c3)[nH]n2)ccc1OCC(=O)Nc1cccc(C(C)=O)c1, which MIC (Staphylococcus aureus [3]) is on record?
A: The MIC was 10 to 20 µg/mL (≈ 14 to 28 µM).

Q: Which results are given for Oc1ccc(/C=C/c2cc(O)cc(O)c2)cc1 [RESVERATROL]?
A: MIC (Staphylococcus aureus [15]): 16.5 to 260 µg/mL (≈ 72.3 to 1140 µM); MIC (Bacillus cereus [16]): 16.5 to 260 µg/mL (≈ 72.3 to 1140 µM); MIC (Bacillus subtilis): 16.5 to 260 µg/mL (≈ 72.3 to 1140 µM); MIC (Listeria monocytogenes): 16.5 to 260 µg/mL (≈ 72.3 to 1140 µM); MIC (Escherichia coli [17]): 0.625 to 521 µg/mL (≈ 2.74 to 2280 µM); MIC (Salmonella typhimurium): 0.625 to 521 µg/mL (≈ 2.74 to 2280 µM); MIC (Vibrio cholerae): 0.625 to 521 µg/mL (≈ 2.74 to 2280 µM); MIC (Campylobacter jejuni): 0.625 to 521 µg/mL (≈ 2.74 to 2280 µM); MIC (Campylobacter coli): 0.625 to 521 µg/mL (≈ 2.74 to 2280 µM); MIC (Aliarcobacter butzleri): 0.625 to 521 µg/mL (≈ 2.74 to 2280 µM); MIC [18]: 0.625 to 521 µg/mL (≈ 2.74 to 2280 µM); Activity [19]: 3.67 mM; Activity [20]: 1.57 mM; Activity [21]: 0.47 mM; inhibition at 100 µg/mL (Staphylococcus aureus [22]): 39.9%; inhibition at 150 µg/mL (Staphylococcus aureus [23]): 23.4%

Q: With Cc1ccc(C(C)C)c(O)c1 [THYMOL] as the compound, how does the MIC (Escherichia coli [6]) read?
A: The MIC was 2.5 µg/mL (≈ 16.6 µM).

Q: And the MIC (Staphylococcus aureus [7])?
A: Its MIC is 2.5 µg/mL (≈ 16.6 µM).

Q: For COc1cc(N)ccc1O, which MBC99 (Staphylococcus aureus [24]) is on record?
A: Its MBC99 is 10 mM (≈ 1390 µg/mL).

Q: And the inhibition of growth at 25000 µg/mL (Staphylococcus aureus [25])?
A: The inhibition of growth at 25000 µg/mL was 93%.

Q: For COc1cc(/C=C/c2cc(/C=C/c3ccc(OCC(=O)Nc4ccc(C)cc4)c(OC)c3)[nH]n2)ccc1OCC(=O)Nc1ccc(C)cc1, which MIC (Staphylococcus aureus [3]) is on record?
A: Its MIC is 10 to 20 µg/mL (≈ 15.2 to 30.4 µM).

Q: For COc1cc(/C=C/c2cc(/C=C/c3ccc(OCC(=O)NCc4ccccc4)c(OC)c3)[nH]n2)ccc1OCC(=O)NCc1ccccc1, which MIC (Staphylococcus aureus [3]) is on record?
A: The MIC was 10 to 20 µg/mL (≈ 15.2 to 30.4 µM).

Q: With Oc1ccc2cc(Br)ccc2c1-c1c[nH]c2ccccc12 as the compound, how does the EC50 [2] read?
A: Its EC50 is 3.8 µg/mL (≈ 11.2 µM).

Q: And the MIC (Escherichia coli [26])?
A: The MIC was 5.32 µg/mL (≈ 15.7 µM).

Q: And the MIC (Staphylococcus aureus [27])?
A: Its MIC is 14.8 µg/mL (≈ 43.8 µM).

From ChEMBL document CHEMBL4265917, “Antibacterial and antioxidant activities for natural and synthetic dual-active compounds” (Eur J Med Chem, 2018)
